Where a SMILES comes first, the peptide text is derived from it.

The target of one experiment is Renin (Sus scrofa). Put plainly: Compound was evaluated for Non-competitive Renin inhibitory activity against hog kidney renin; Non competitive.
The next experiment has as its target T1, Renin (Homo sapiens, UniProt P00797).
T1 sequence (P00797 whole entry): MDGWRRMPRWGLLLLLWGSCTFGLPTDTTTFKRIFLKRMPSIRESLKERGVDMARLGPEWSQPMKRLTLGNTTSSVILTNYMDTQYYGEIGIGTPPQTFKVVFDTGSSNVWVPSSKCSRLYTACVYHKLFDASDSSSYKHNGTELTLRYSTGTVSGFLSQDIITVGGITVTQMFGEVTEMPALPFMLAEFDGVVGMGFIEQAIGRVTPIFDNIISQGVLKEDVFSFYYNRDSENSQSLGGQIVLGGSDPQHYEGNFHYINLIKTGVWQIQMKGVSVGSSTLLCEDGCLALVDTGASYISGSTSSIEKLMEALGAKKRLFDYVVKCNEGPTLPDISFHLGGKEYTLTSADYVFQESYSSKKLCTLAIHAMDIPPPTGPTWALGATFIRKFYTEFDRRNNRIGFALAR
Put plainly: Compound was evaluated for competitive Renin inhibitory activity against human amniotic renin; Competitive.

By Ki is commonly meant a measure of affinity in units of concentration, obtained from inhibition or displacement. High values mean weaker binding, low ones tighter binding. Regarding `COC(=O)[C@H](Cc1ccccc1)NC(=O)[C@@H](NC(=O)[C@H](CC(C)C)NC(=O)[C@@H](N)CC(C)C)C(C)C` (H-LLVF-OMe), on Renin (Sus scrofa), the Ki amounted to 500 µM.

Compound `COC(=O)[C@H](Cc1ccccc1)NC(=O)[C@@H](NC(=O)CNC(=O)[C@@H](N)CC(C)C)C(C)C` (H-LGVF-OMe) displayed a Ki at Renin of 1000 µM.

(Values after ChEMBL document CHEMBL1122620, “Inhibition of renin by substrate analogue inhibitors containing the olefinic amino acid 5(S)-amino-7-methyl-3(E)-octenoic acid” (J Med Chem, 1984).)
